In patent US20100048498A1, “STABLE NON-DIHYDRATE AZITHROMYCIN ORAL SUSPENSIONS” (priority 2004, published 2010):

Columns and labels:
[1] = Stability of azithromycin form G in suspensions prepared from POS formulations I, II and III; type: physicochemical; details: 18 mls water, 30° C.
Experimental: These POS formulations were created by individually weighing each formulation component into a 60-cc High Density Polyethylene (HDPE) bottle with closure. The resulting formulations were then dry-mixed with a Turbula blender (Glen Mills Inc. Maywood, NJ) for 5 minutes. The powder blends were then constituted with 18 mls of water, shaken for 30 seconds and stored without agitation under controlled temperature conditions.
Upon conclusion of the storage time period the POS samples were filtered using a Buchner funnel in combination with a standard vacuum filtration apparatus. A Millipore prefilter (AP25, 47 mm) was fitted onto the funnel for the collection of suspended solids. Before filtering, the constituted POS sample was poured into a 200 ml volumetric flask and diluted to 200 ml with water. This lowered the viscosity of the sample, facilitating a quick filtration step. With the vacuum on, the diluted POS samples were poured onto the Millipore prefilter. The isolated filtrate remaining on top of the prefilter was then allowed to stand for 2-minutes in order to dry. Vacuum was applied to the filtration apparatus during this drying step. Suspensions containing only bulk drug were transferred directly onto the filter paper upon completion of storage, without the described dilution step during sample preparation. After drying, the collected filtrate was placed into 4 cc Sunbroker vials and analyzed via Solid-State Nuclear Magnetic Resonance (SS-NMR) for quantification of conversion to azithromycin dihydrate (form A).
Approximately 300 mg of sample were tightly packed into a 7 mm ZrO spinner for each sample analyzed. One-dimensional ^13C spectra were collected at ambient pressure using ^1H-^13C cross-polarization magic angle spinning (CPMAS) at 295 K on a Bruker 7 mm BL CPMAS probe positioned into a wide-bore Bruker Avance DSX 500 MHz NMR spectrometer (Bruker BioSpin Corporation; Billerica, Mass.). The samples were spun at 7000 Hz corresponding to the maximum specified spinning speed for the 7 mm spinners. The fast spinning speed minimized the intensities of the spinning side bands. To optimize the signal sensitivity, the cross-polarization contact time was adjusted to 2.3 ms and the decoupling power was set to 65 kHz. Typically, a total of 600 scans were acquired, resulting in approximately a 30 minute acquisition time. The spectra were referenced using an external sample of adamantane with its most upfield resonance set to 29.5 ppm.
Eight pairs of resolved peaks were identified to calibrate ratios of form A in the presence of form G, N, M or F. Integral intensities of all peaks were used as input for the calibration procedure using five different binary mixtures ranging from 3 to 81% of form A with each non-dihydrate form. From this, one non-linear calibration graph was generated for each pair of peaks and each form. For the experimental samples, only the peaks that were totally void from excipient overlap were preferentially integrated. The unknown percentages of form A were then determined from the appropriate calibration graphs. The final result for each sample analyzed was calculated as a weighted average of the determinations from each resolved peak pair.
The stability of form G azithromycin was also evaluated for suspensions prepared from POS formulations I, II and III. The form G bulk drug substance contained <1% by weight of form A prior to formulation and constitution. These suspensions were constituted with 18 mls of water and stored for 1 and 10 days at 30° C.

[2] = Effects of flavoring components upon azithromycin form G conversion in constituted POS; type: physicochemical; details: room temperature, 24-hours
Experimental: Standards of these identified solvent components were then used to investigate the source of the stability problem introduced by these flavorings. The estimated concentration of each solvent in a constituted POS was calculated based on the GC-MS quantification of the specified solvent in the flavorings. Aqueous solutions of each solvent/component were then created at these concentrations and 18 mls of each solvent-solution was used to constitute an unflavored POS formulation I sample using form G. The constituted drug suspensions were stored at room temperature for 24-hours, before being filtered and analyzed by SS-NMR for quantification of azithromycin form change over this interval. POS formulations I and II were constituted with 18 mls of water and stored identically to serve as controls for this experiment.

SMILES: CC[C@H]1OC(=O)[C@H](C)[C@@H](O[C@H]2C[C@@](C)(OC)[C@@H](O)[C@H](C)O2)[C@H](C)[C@@H](O[C@@H]2O[C@H](C)C[C@H](N(C)C)[C@H]2O)[C@](C)(O)C[C@@H](C)CN(C)[C@H](C)[C@@H](O)[C@]1(C)O [Form G, azithromycin sesquihydrate]
- % Form A ([1]; Formulation I (no flavorings), Day 1): 0%
- % Form A ([1]; Formulation I (no flavorings), Day 10, listed as form G, sesquihydrate): did not exhibit conversion
- % Form A ([1]; Formulation I (no flavorings), Day 10, sesquihydrate): 0%
- % Form A ([1]; Formulation II (Trusil banana), Day 1): 84%
- % Form A ([1]; Formulation II (Trusil banana), Day 10): 91%
- % Form A ([1]; Formulation III (B&C banana), Day 1): 27%
- % Form A ([1]; Formulation III (B&C banana), Day 10): 52%
- % Form A ([2]; Formulation I constituted with 18 mL 0.002 mg/ml ethyl ester propanoic acid): 0%
- % Form A ([2]; Formulation I constituted with 18 mL 0.025 mg/ml 3-methyl-1-butanol): 0%
- % Form A ([2]; Formulation I constituted with 18 mL 0.043 mg/ml isoamyl isovalerate): 13%
- % Form A ([2]; Formulation I constituted with 18 mL 0.144 mg/ml 2-methyl-butyl acetate): 0%
- % Form A ([2]; Formulation I constituted with 18 mL 0.197 mg/ml ethyl acetate): 0%
- % Form A ([2]; Formulation I constituted with 18 mL 0.587 mg/ml benzaldehyde): 0%
- % Form A ([2]; Formulation I constituted with 18 mL 0.785 mg/ml 3-methyl-butyl acetate + 0.562 mg/ml benzaldehyde): 11%
- % Form A ([2]; Formulation I constituted with 18 mL 0.815 mg/ml 3-methyl-butyl acetate): 2%
- % Form A ([2]; Formulation I constituted with 18 mL Water, listed as form G, sesquihydrate): no conversion
- % Form A ([2]; Formulation I constituted with 18 mL Water, sesquihydrate): 0%
- % Form A ([2]; Formulation II constituted with 18 mL Water, listed as form G, sesquihydrate): approximately 71%
- % Form A ([2]; Formulation II constituted with 18 mL Water, sesquihydrate): 71%
